# Source: ChEMBL document CHEMBL1201862, “PubChem BioAssay data set” (2004)
#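 1) Cells in 96-well plates. 2) Compound, 48 h, 5 concentrations. 3) Linear interpolation between surrounding doses. 4) Unreached endpoint = highest concentration. At the GI50, growth is halved.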 The source made the active and inactive calls. Rule as the data show it: active = GI50 up to about 1.1 µM and inactive = higher.
# Key:
# Assay in all cases: NCI anticancer screen, dose series, 48 h
# LOX IMVI = system: LOX IMVI
# SK-MEL-5 = system: SK-MEL-5
# KM12 = system: KM12
# PC-3 = system: PC-3
# SN12C = system: SN12C
# HT-29 = system: HT-29
# OVCAR-3 = system: OVCAR-3
# A549 = system: A549
# SNB-75 = system: SNB-75
# IGROV-1 = system: IGROV-1
# NCI/ADR-RES = system: NCI/ADR-RES
# COLO 205 = system: COLO 205
# A498 = system: A498
# TK-10 = system: TK-10
# CCRF-CEM = system: CCRF-CEM
# U-251 = system: U-251
# EKVX = system: EKVX
# RXF 393 = system: RXF 393
# MDA-N = system: MDA-N
# UACC-62 = system: UACC-62
Structure (SMILES),GI50 (LOX IMVI),GI50 (SK-MEL-5),GI50 (KM12),GI50 (PC-3),GI50 (SN12C),GI50 (HT-29),GI50 (OVCAR-3),GI50 (A549),GI50 (SNB-75),GI50 (IGROV-1),GI50 (NCI/ADR-RES),GI50 (COLO 205),GI50 (A498),GI50 (TK-10),GI50 (CCRF-CEM),GI50 (U-251),GI50 (EKVX),GI50 (RXF 393),GI50 (MDA-N),GI50 (UACC-62)
Fc1ccc(F)c(/C=N/C23CC4CC(CC(C4)C2)C3)c1,> 10 µM (inactive),> 10 µM (inactive),> 10 µM (inactive),> 10 µM (inactive),> 10 µM (inactive),> 10 µM (inactive),> 10 µM (inactive),> 10 µM (inactive),> 10 µM (inactive),> 10 µM (inactive),> 10 µM (inactive),> 10 µM (inactive),> 10 µM (inactive),> 10 µM (inactive),5.13 µM (inactive),> 10 µM (inactive),> 10 µM (inactive),> 10 µM (inactive),> 10 µM (inactive),–
CC(C)=c1sc(=C(C)C)c2c1=NC(C)(C)N=2,27 µM (inactive),79.6 µM (inactive),78.9 µM (inactive),45.9 µM (inactive),58.5 µM (inactive),74.6 µM (inactive),72.6 µM (inactive),51.5 µM (inactive),–,42.1 µM (inactive),> 100 µM (inactive),87.3 µM (inactive),87.5 µM (inactive),> 100 µM (inactive),44.3 µM (inactive),46 µM (inactive),57.9 µM (inactive),> 100 µM (inactive),65.6 µM (inactive),37.4 µM (inactive)
CCc1nn(S(=O)(=O)c2ccc(C)cc2)c2c1CS(=O)(=O)CC2,–,> 100 µM (inactive),> 100 µM (inactive),> 100 µM (inactive),> 100 µM (inactive),> 100 µM (inactive),> 100 µM (inactive),> 100 µM (inactive),> 100 µM (inactive),–,38.1 µM (inactive),> 100 µM (inactive),> 100 µM (inactive),> 100 µM (inactive),–,> 100 µM (inactive),89.7 µM (inactive),> 100 µM (inactive),> 100 µM (inactive),> 100 µM (inactive)
Nc1ncc(Br)c(NCC2(CO)CCC2)n1,> 100 µM (inactive),54.5 µM (inactive),> 100 µM (inactive),> 100 µM (inactive),> 100 µM (inactive),> 100 µM (inactive),> 100 µM (inactive),> 100 µM (inactive),> 100 µM (inactive),> 100 µM (inactive),95.5 µM (inactive),> 100 µM (inactive),35.6 µM (inactive),> 100 µM (inactive),> 100 µM (inactive),> 100 µM (inactive),58.5 µM (inactive),> 100 µM (inactive),> 100 µM (inactive),> 100 µM (inactive)
COc1cc(C2C3=C(COC3=O)Oc3cc4c(cc32)OCO4)cc(OC)c1OC (centres undefined),< 0.0164 µM (active),0.0198 µM (active),0.0112 µM (active),0.0331 µM (active),0.0515 µM (active),–,0.025 µM (active),0.0354 µM (active),0.00993 µM (active),0.0489 µM (active),0.0185 µM (active),0.0333 µM (active),0.00488 µM (active),> 10 µM (inactive),0.0314 µM (active),0.0262 µM (active),0.015 µM (active),0.0106 µM (active),0.0219 µM (active),0.0166 µM (active)
CC(N1CCOCC1)C(O)(c1ccccc1)c1ccccn1 (centres undefined),> 100 µM (inactive),> 100 µM (inactive),> 100 µM (inactive),> 100 µM (inactive),> 100 µM (inactive),> 100 µM (inactive),> 100 µM (inactive),> 100 µM (inactive),> 100 µM (inactive),> 100 µM (inactive),> 100 µM (inactive),> 100 µM (inactive),38.8 µM (inactive),> 100 µM (inactive),–,> 100 µM (inactive),> 100 µM (inactive),> 100 µM (inactive),> 100 µM (inactive),37.8 µM (inactive)
COC(=O)C1CC(C=O)=C(SC)N1 (centres undefined),–,> 50 µM (inactive),> 50 µM (inactive),> 50 µM (inactive),–,> 50 µM (inactive),> 50 µM (inactive),> 50 µM (inactive),> 50 µM (inactive),> 50 µM (inactive),> 50 µM (inactive),> 50 µM (inactive),> 50 µM (inactive),> 50 µM (inactive),–,> 50 µM (inactive),> 50 µM (inactive),> 50 µM (inactive),> 50 µM (inactive),> 50 µM (inactive)
Oc1nc2ccccc2c(O)c1Cc1ccccc1,> 100 µM (inactive),> 100 µM (inactive),> 100 µM (inactive),> 100 µM (inactive),> 100 µM (inactive),> 100 µM (inactive),> 100 µM (inactive),> 100 µM (inactive),> 100 µM (inactive),> 100 µM (inactive),> 100 µM (inactive),> 100 µM (inactive),> 100 µM (inactive),> 100 µM (inactive),> 100 µM (inactive),> 100 µM (inactive),> 100 µM (inactive),> 100 µM (inactive),> 100 µM (inactive),–
